Like-named read-outs stand apart in the source and are kept apart here. Peptide text beside a SMILES is read from it.
Biological target: T1, δ opioid receptors (Mus musculus, UniProt P32300)
T1 construct: Bioassays Using Isolated Organ Preparations; from tissue; host or cells: mouse vas deferens (isolated organ)
Experiment: Mouse vas deferens (MVD) bioassay, antagonism of electrically evoked contraction inhibition by δ-selective agonists
Type: tissue-based
Conditions: MVD assay, means of 3-8 determinations
From the text: a) Biosassys based on inhibition of electrically evoked contractions of the mouse vas deferens (MVD) and of the guinea pig ileum (GPI). In the GPI assay the opioid effect is primarily mediated by μ opioid receptors, whereas in the MVD assay the inhibition of the contractions is mostly due to interaction with δ opioid receptors.
The GPI and MVD bioassays were carded out as reported in P. W. Schiller et al., Biochem. Biophys. Res. Commun 85, 1332-1338 (1978) and J. Di Maio et al., J. Med. Chem. 25, 1432-1438 (1982). A log dose-response curve was determind with [Leu^5 ]enkephalin as standard for each ileum and vas preparation, and IC50 values of the compounds being tested were normalized according to A. A Waterfield et al., Eur. J. Pharmacol. 58, 11-18 (1979). […] These determinations were made with the MVD assay, using three different δ-selective agonists ([Leu^5 ] enkephalin, DPDPE and [D-Ala^2 ]deltorphin I].

[1] = Ke (nM) against DPDPE, δ agonist DPDPE
[2] = Ke (nM) against [D-Ala2]deltorphin I, δ agonist [D-Ala2]deltorphin I
[3] = Ke (nM) against [Leu5]Enkephalin, δ agonist [Leu5]enkephalin
[4] = δ agonist DPDPE, read-out: Ke (nM) against DPDPE
[5] = δ agonist [D-Ala2]deltorphin I, read-out: Ke (nM) against [D-Ala2]deltorphin I
[6] = δ agonist [Leu5]enkephalin, read-out: Ke (nM) against [Leu5]Enkephalin

T1 sequence (P32300 whole entry): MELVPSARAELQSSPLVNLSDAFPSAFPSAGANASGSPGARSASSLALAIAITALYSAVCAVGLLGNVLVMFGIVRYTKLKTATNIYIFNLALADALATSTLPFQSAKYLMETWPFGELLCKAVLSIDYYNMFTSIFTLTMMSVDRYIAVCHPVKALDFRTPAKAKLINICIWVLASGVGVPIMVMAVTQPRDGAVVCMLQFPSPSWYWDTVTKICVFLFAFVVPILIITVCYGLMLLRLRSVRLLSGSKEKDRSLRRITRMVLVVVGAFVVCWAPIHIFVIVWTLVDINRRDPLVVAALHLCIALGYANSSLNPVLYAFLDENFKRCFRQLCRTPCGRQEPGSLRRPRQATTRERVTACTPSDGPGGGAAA

SMILES | Kb [1] | Kb [2] | Kb [3] | Kb [4] | Kb [5] | Kb [6]
N[C@@H](Cc1ccc(O)cc1)C(=O)N1Cc2ccccc2C[C@H]1CN[C@@H](CCc1ccccc1)C(=O)N[C@@H](Cc1ccccc1)C(=O)O [HTyrTic.psi.[CH2NH]HfePheOH, H-Tyr-Tic-.PSI.[CH2 --NH]Hfe-Phe-OH] | 2.64 nM | 1.9 nM | 2.22 nM |  |  | 
NC(=O)[C@H](CO)NC(=O)[C@@H]1CCCN1C(=O)[C@H](Cc1ccc(O)cc1)NC(=O)[C@H](Cc1ccccc1)NC(=O)[C@H](Cc1c[nH]c2ccccc12)NC(=O)[C@@H]1Cc2ccccc2CN1C(=O)[C@@H](N)Cc1ccc(O)cc1 [HTyrTicTrpPheTyrProSerNH2, H-Tyr-Tic-Trp-Phe-Tyr-Pro-Ser-NH2] (HELM PEPTIDE1{Y.[Tic].W.F.Y.P.S.[am]}$$$$V2.0) | 3.65 nM |  | 4.2 nM |  |  | 
NC(=O)[C@H](CO)NC(=O)[C@@H]1CCCN1C(=O)[C@H](Cc1ccc(O)cc1)NC(=O)[C@H](Cc1ccc([N+](=O)[O-])cc1)NC(=O)[C@H](Cc1c[nH]c2ccccc12)NC(=O)[C@@H]1Cc2ccccc2CN1C(=O)[C@@H](N)Cc1ccc(O)cc1 [HTyrTicTrpPhe(pNO2)TyrProSerNH2, H-Tyr-Tic-Trp-Phe (pNO2) -Tyr-Pro-Ser-NH2] (HELM PEPTIDE1{Y.[Tic].W.[O=C([C@H](Cc1ccc([N+](=O)[O-])cc1)N[*:1])[*:2]].Y.P.S.[am]}$$$$V2.0) | 2.48 nM | 3.91 nM | 3.68 nM |  |  | 
N[C@@H](Cc1ccc(O)c(F)c1)C(=O)N1Cc2ccccc2C[C@H]1C(=O)N[C@@H](Cc1ccccc1)C(=O)N[C@@H](Cc1ccccc1)C(=O)O [HTyr(3-F)TicPhePheOH, H-Tyr(3-F)-Tic-Phe-Phe-OH] (HELM PEPTIDE1{[N[C@@H](Cc1ccc(O)c(F)c1)C(=O)[*:2]].[Tic].F.F}$$$$V2.0) | 13 nM | 8.73 nM | 5.88 nM |  |  | 
CCCC[C@H](NC(=O)[C@H](CC(C)C)NC(=O)[C@H](Cc1ccccc1)NC(=O)[C@H](Cc1ccccc1)NC(=O)[C@@H]1Cc2ccccc2CN1C(=O)[C@@H](N)Cc1ccc(O)cc1)C(=O)N[C@@H](CC(=O)O)C(N)=O [HTyrTicPhePheLeuNleAspNH2, H-Tyr-Tic-Phe-Phe-Leu-Nle-Asp-NH2] (HELM PEPTIDE1{Y.[Tic].F.F.L.[Nle].D.[am]}$$$$V2.0) | 10.4 nM | 10.8 nM | 21.4 nM |  |  | 
N[C@@H](Cc1ccc(O)cc1)C(=O)N1Cc2ccccc2C[C@H]1C(=O)NC1(C(=O)N[C@@H](Cc2ccccc2)C(=O)O)CCc2ccccc2C1 (stereo partly drawn) [HTyrTicAtcPheOH, H-Tyr-Tic-Atc-Phe-OH] (HELM PEPTIDE1{Y.[Tic].[O=C(C1(N[*:1])CCc2ccccc2C1)[*:2]].F}$$$$V2.0) | 1.85 nM | 0.927 nM | 1.63 nM |  |  | 
N[C@@H](Cc1ccc(O)c(Cl)c1)C(=O)N1Cc2ccccc2C[C@H]1C(=O)N[C@@H](Cc1ccccc1)C(=O)N[C@@H](Cc1ccccc1)C(=O)O [HTyr(3-Cl)TicPhePheOH, H-Tyr(3-Cl)-Tic-Phe-Phe-OH] (HELM PEPTIDE1{[N[C@@H](Cc1ccc(O)c(Cl)c1)C(=O)[*:2]].[Tic].F.F}$$$$V2.0) | 20.4 nM | 19.9 nM | 18 nM |  |  | 
CCN(CC)[C@@H](Cc1ccc(O)cc1)C(=O)N1Cc2ccccc2C[C@H]1C(=O)N[C@@H](Cc1ccccc1)C(=O)N[C@@H](Cc1ccccc1)C(=O)O [Tyr(N^α Et2)-TicPhePheOH, Tyr(N^α Et2)-Tic-Phe-Phe-OH] | 0.893 nM | 2.3 nM | 3.39 nM |  |  | 
Cc1cc(O)cc(C)c1C[C@H](N)C(=O)N1Cc2ccccc2C[C@H]1C(=O)N[C@@H](Cc1ccccc1)C(=O)N[C@@H](Cc1ccccc1)C(N)=O [HDmtTicPhePheNH2, H-Dmt-Tic-Phe-Phe-NH2] (HELM PEPTIDE1{[Cc1cc(O)cc(C)c1C[C@H](N)C(=O)[*:2]].[Tic].F.F.[am]}$$$$V2.0) |  | 0.26 nM | 0.221 nM | 0.209 nM |  | 
N[C@@H](Cc1ccc(O)cc1)C(=O)N1Cc2ccccc2C[C@H]1C(=O)N[C@@H](Cc1c[nH]c2ccccc12)C(=O)O [HTyrTicTrpOH] (HELM PEPTIDE1{Y.[Tic].W}$$$$V2.0) | 6.23 nM | 5.36 nM | 10.6 nM |  |  | 
N[C@@H](Cc1ccc(O)cc1)C(=O)N1Cc2ccccc2C[C@H]1C(=O)N[C@@H](Cc1ccccc1)C(=O)N[C@@H](Cc1ccccc1)C(=O)O [HTyrTicPhePheOH, H-Tyr-Tic-Phe-Phe-OH] (HELM PEPTIDE1{Y.[Tic].F.F}$$$$V2.0) |  |  |  | 4.8 nM | 2.96 nM | 5.86 nM
Cc1cc(O)cc(C)c1C[C@H](N)C(=O)N1Cc2ccccc2C[C@H]1C(=O)N[C@@H](Cc1ccccc1)C(=O)N[C@@H](Cc1ccccc1)C(=O)O [HDmtTicPhePheOH, H-Dmt-Tic-Phe-Phe-OH] (HELM PEPTIDE1{[Cc1cc(O)cc(C)c1C[C@H](N)C(=O)[*:2]].[Tic].F.F}$$$$V2.0) |  |  |  | 0.196 nM | 0.13 nM | 0.169 nM
N[C@@H](Cc1ccc(O)cc1)C(=O)N1Cc2ccccc2C[C@H]1C(=O)N[C@@H](Cc1c[nH]c2ccccc12)C(=O)N[C@@H](Cc1ccc([N+](=O)[O-])cc1)C(=O)O [HTyrTicTrpPhe(pNO2)OH, H-Tyr-Tic-Trp-Phe(pNO2)-OH] (HELM PEPTIDE1{Y.[Tic].W.[O=C(O)[C@H](Cc1ccc([N+](=O)[O-])cc1)N[*:1]]}$$$$V2.0) | 4.4 nM | 2.27 nM | 1.83 nM |  |  | 
N[C@@H](Cc1ccc(O)cc1)C(=O)N1Cc2ccccc2C[C@H]1C(=O)N[C@@H](Cc1ccccc1)C(=O)N[C@@H](Cc1ccc([N+](=O)[O-])cc1)C(=O)O [HTyrTicPhePhe(pNO2)OH, H-Tyr-Tic-Phe-Phe(pNO2)-OH] (HELM PEPTIDE1{Y.[Tic].F.[O=C(O)[C@H](Cc1ccc([N+](=O)[O-])cc1)N[*:1]]}$$$$V2.0) | 3.3 nM | 2.79 nM | 3.62 nM |  |  | 
O=C(O)[C@H](Cc1ccccc1)NC(=O)[C@H](Cc1ccccc1)NC(=O)[C@@H]1Cc2ccccc2CN1C(=O)[C@H](Cc1ccc(O)cc1)NCC1CC1 [Tyr(N^α Cpm)-TicPhePheOH, Tyr(N^α Cpm)-Tic-Phe-Phe-OH] | 28.2 nM | 32.5 nM | 29.6 nM |  |  | 
N[C@@H](Cc1ccc(O)c(Br)c1)C(=O)N1Cc2ccccc2C[C@H]1C(=O)N[C@@H](Cc1ccccc1)C(=O)N[C@@H](Cc1ccccc1)C(=O)O [HTyr(3-Br)TicPhePheOH, H-Tyr(3-Br)-Tic-Phe-Phe-OH] (HELM PEPTIDE1{[N[C@@H](Cc1ccc(O)c(Br)c1)C(=O)[*:2]].[Tic].F.F}$$$$V2.0) | 31.3 nM | 23.9 nM | 18.2 nM |  |  | 
CN[C@@H](Cc1ccc(O)cc1)C(=O)N1Cc2ccccc2C[C@H]1CN[C@@H](CCc1ccccc1)C(=O)N[C@@H](Cc1ccccc1)C(=O)O [Tyr(NMe)-Tic.psi.[CH2NH]HfePheOH, Tyr(NMe)-Tic.PSI.[CH2 --NH]Hfe-Phe-OH] | 0.902 nM | 0.418 nM | 0.78 nM |  |  | 
